According to publication PMC11597386, “Pharmacokinetics and Quantitative Structure–Pharmacokinetics Relationship Study of Xanthine Derivatives with Antidepressant, Anti-Inflammatory, and Analgesic Activity in Rats” (Pharmaceutics, 2024):
Where two headings read alike, the source gives them in different places.

Legend:
[1] = Pharmacokinetics after single intravenous administration to cannulated rats, noncompartmental analysis; format: in vivo, rat; details: for clearance / Vd / half-life: male, Wistar, rat, plasma, iv; for clearance: read-out: CL, total body clearance; for Vd: read-out: Vz, volume of distribution based on the terminal phase; for half-life: read-out: t0.5λz, terminal half-life
Method: Male Wistar rats, 15–17 weeks of age and weighing between 250 and 350 g, purchased from the Animal Facility of the Jagiellonian University Medical College, Krakow, Poland, were used in all experiments. They were kept under conditions of constant temperature (21–25 °C) and relative humidity of approximately 40–65% with a standard light/dark cycle. Animals were housed in stainless steel cages with suspended wire mesh floors (maximum of 5 rats per cage) with free access to distilled water and the commercial rodent chaw. All study protocols were approved by the First Local Ethical Committee on Animal Testing of the Jagiellonian University (licenses no. Zi/604/2011 and 13/2014).
Three days prior to the experiment, the rat’s jugular vein was cannulated (SAI Infusion Technologies, Lake Villa, IL, USA), allowing for multiple blood samples from a single animal. […] The doses were selected based on the results of our previous studies on rats and mice. Four rats per compound were used. Multiple blood samples were taken over a period of at least 120 min into heparinized tubes; plasma was separated by centrifugation (Universal 32, Hettich, Germany) at 1400× g for 20 min and stored at −80 °C until analysis.
(§1) For the purpose of the quantitative analysis of free and total plasma concentrations of studied compounds, different analytical methods were developed. Theo was extracted from the biological samples by liquid–liquid extraction using dichloromethane. The mixture consisting of 100 μL of rat plasma or ultrafiltrate, 10 μL of theobromine (25 μg/mL in methanol) used as IS, 20 μL of 0.1 M HCl, and 5 mL of dichloromethane was agitated on a shaker (VXR Vibrax, IKA, Staufen, Germany) and subsequently centrifuged for 20 min at 3000 rpm (Universal 32, Hettich, Germany). A clear supernatant (4 mL) was transferred into a glass conical tube and evaporated to dryness under a stream of nitrogen in a water bath at 37 °C. The residue was then reconstituted in 100 μL of methanol, vortexed for 30 s, and the solution was transferred into the automatic sampler vials. Finally, 10–50 μL aliquot was injected into the HPLC/DAD system (LaChrome Elite, Merck-Hitachi, Germany). Chromatographic separation was performed on the LiChrospher 100 RP-18 (250 × 4 mm i.d., 5 µm particle size) analytical column coupled with a LiChroCART® guard column (4.0 × 4.0 mm, 5 μm) from Merck (Darmstadt, Germany). The mobile phase consisted of a mixture of methanol and deionized water (20:80, v/v) and was pumped through the system at a flow rate of 1.0 mL/min. The peaks were detected by a DAD detector at the wavelength of 271 nm. […] The analytical run lasted 20 min.
Plasma or ultrafiltrate samples containing PTX or (R)-LSF were placed in a glass tube and spiked with 10 µL of the IS solution (100 µg/mL temazepam in methanol). Samples were then acidified with 20 µL of 0.1 M hydrochloric acid, and 3 mL of dichloromethane was added to each sample. Tubes were shaken for 20 min and subsequently centrifuged (2000× g, 20 min). Then, 2.5 mL of dichloromethane was transferred to a clean glass conical tube and evaporated under a gentle stream of nitrogen in a water bath at 37 °C. The dried residue was dissolved in 100 µL of the mobile phase, and 50 µL of this solution was injected into the HPLC column. Analysis was performed on a 250 × 4.6 mm Chiralpak AD column (Daicel Corp., Tokyo, Japan) with 10 μm particle size, protected with a 20 × 4.6 mm LC-Si guard-column (Supelco Inc., Bellefonte, PA, USA). Mobile phase consisted of hexane: 2-propanol, 84:16 (v/v), and 0.01% diethylamine and was pumped at a flow rate of 1.4 mL/min. Calibration curves were linear in a range of 0.1–50 mg/L. The retention times of IS, PTX, and (R)-LSF were 7, 16, and 20 min, respectively. […]

[2] = Plasma protein binding / unbound fraction by ultrafiltration of plasma collected 15 min after i.v. administration; format: in vitro ADME; details: male, Wistar, rat, intravenous
Method: The free concentrations of studied compounds in plasma were determined and unbound fraction (fu) was calculated in all available plasma samples obtained 15 min after the intravenous administration. At this time point, 500–600 µL of blood was collected and plasma samples obtained were divided into two portions: 150–200 µL for measurement of free compound concentrations and 100 µL for measurement of the total drug concentrations. Plasma proteins were separated by an ultrafiltration method using Centrifree® devices with Ultracel PL regenerated cellulose membrane, 30,000 NMWL (Merck, Germany). For direct measurement of the free concentrations of compounds, each plasma sample was transferred to a sample reservoir of the disposable filter unit and centrifuged (1000× g) for 20 min at 25 °C. An aliquot of the ultrafiltrate was directly subjected to analysis. Free and total compound concentrations were measured by a high-performance liquid chromatography method with diode-array detection (HPLC-DAD) or liquid chromatography with tandem mass spectrometry (LC-MS/MS).
as §1, with “Theo was extracted from the biological samples by liquid–liquid extraction using dichloromethane.” left out
Plasma or ultrafiltrate samples containing PTX or (R)-LSF were placed in a glass tube and spiked with 10 µL of the IS solution (100 µg/mL temazepam in methanol). Samples were then acidified with 20 µL of 0.1 M hydrochloric acid, and 3 mL of dichloromethane was added to each sample. Tubes were shaken for 20 min and subsequently centrifuged (2000× g, 20 min). Then, 2.5 mL of dichloromethane was transferred to a clean glass conical tube and evaporated under a gentle stream of nitrogen in a water bath at 37 °C. The dried residue was dissolved in 100 µL of the mobile phase, and 50 µL of this solution was injected into the HPLC column. Analysis was performed on a 250 × 4.6 mm Chiralpak AD column (Daicel Corp., Tokyo, Japan) with 10 μm particle size, protected with a 20 × 4.6 mm LC-Si guard-column (Supelco Inc., Bellefonte, PA, USA). Mobile phase consisted of hexane: 2-propanol, 84:16 (v/v), and 0.01% diethylamine and was pumped at a flow rate of 1.4 mL/min. […] HPLC system (Thermo Separation Product, San Jose, CA, USA) consisted of a UV/VIS spectrophotometric detector (Spectra 100) with absorbance set at 275 nm, P100 pump, and Rheodyne 7125 manual injector (Alltech Associates, Deerfield, IL, USA) with a 50 µL sample loop. Chromatograms were recorded and integrated with an SP 4400 ChromJet integrator (San Jose, CA, USA).

plasma proteins = system: plasma proteins; set-up: method as in earlier work; details: cited from earlier work
[3] = male Wistar rats, single i.v. dose (50 mg/kg Theo; 40 mg/kg PTX, LSF; 5 mg/kg GR-1 to GR-5; 2 mg/kg GR-6 to GR-8), geometric mean, n = 4
[4] = rat plasma 15 min after i.v. administration, ultrafiltration, geometric mean, n = 4, read-out: fb, fraction bound to plasma proteins (converted)
[5] = rat plasma 15 min after i.v. administration, ultrafiltration, geometric mean, n = 4, read-out: fu, fraction unbound in plasma
[6] = rat plasma proteins, read-out: percent of plasma protein binding (converted)

Row | SMILES | Vss, volume of distribution at steady-state [1, 3] | clearance [1] | Vd [1] | half-life [1] | fraction unbound at 15 min [2, 4] | fraction unbound at 15 min [2, 5] | fraction unbound at 15 min [2, 6] | Vz, volume of distribution based on the terminal phase [1, 3] | percent of plasma protein binding (plasma proteins)
1 | C[C@@H](O)CCCCn1c(=O)c2c(ncn2C)n(C)c1=O [(R)-LSF, R-lisofylline, reference compound] | 0.78 L/kg | 22.1 mL/min/kg | 0.82 L/kg | 25.7 min | 0.79 | 0.79 | 0.79 | – | –
2 | CC(=O)CCCCn1c(=O)c2c(ncn2C)n(C)c1=O [PTX, pentoxifylline, reference compound] | 0.92 L/kg | 55.5 mL/min/kg | 1.18 L/kg | 14.7 min | 0.19 | 0.19 | – | – | –
3 | Cn1c(=O)c2[nH]cnc2n(C)c1=O [Theo, theophylline, reference compound] | 0.72 L/kg | 2.14 mL/min/kg | 0.73 L/kg | 236 min | – | – | – | – | –
4 | Cn1c(=O)c2c(ncn2CC(O)CO)n(C)c1=O (centres unmarked) [diprophyllinum] | – | – | – | – | – | – | – | – | 84–90%

Further lines, with some results ahead:

Row | Vss, volume of distribution at steady-state [1, 3] | clearance [1] | Vd [1] | half-life [1] | fraction unbound at 15 min [2, 4] | fraction unbound at 15 min [2, 5] | fraction unbound at 15 min [2, 6] | Vz, volume of distribution based on the terminal phase [1, 3] | SMILES | percent of plasma protein binding (plasma proteins)
5 | – | 33.1 mL/min/kg | 2.17 L/kg | 45.4 min | 0.08 | 0.08 | – | – | Cn1c(=O)c2c(ncn2CCCCN2CCN(c3cccc(Cl)c3)CC2)n(C)c1=O [GR-1] | –
6 | – | 29.6 mL/min/kg | 1.52 L/kg | 35.6 min | 0.29 | 0.29 | 0.28 to 0.29 | – | Cn1c(=O)c2c(ncn2CCCCCN2CCN(c3ccccc3)CC2)n(C)c1=O [GR-2] | –
7 | – | 23.6 mL/min/kg | 1.7 L/kg | 49.8 min | 0.28 | 0.28 | 0.28 to 0.29 | – | COc1ccccc1N1CCN(CCCCCn2cnc3c2c(=O)n(C)c(=O)n3C)CC1 [GR-3] | –
8 | – | 26.4 mL/min/kg | 1.9 L/kg | 50 min | 0.06 | 0.06 | – | – | Cn1c(=O)c2c(ncn2CCCCCN2CCN(c3cccc(Cl)c3)CC2)n(C)c1=O [GR-4] | –
9 | 0.78 L/kg | 25.3 mL/min/kg | 1.43 L/kg | 39 min | 0.89 | 0.89 | 0.89 | – | CCOc1nc2c(c(=O)n(C)c(=O)n2C)n1CCCC(=O)NN [GR-5] | –
10 | 0.49 L/kg | 43.1 mL/min/kg | – | 17.1 min | 0.31 | 0.31 | – | 1.06 L/kg | COc1nc2c(c(=O)n(C)c(=O)n2C)n1CCCC(=O)O [GR-6] | –
11 | 0.78 L/kg | 43.2 mL/min/kg | 0.95 L/kg | 15.2 min | 0.13 | 0.13 | – | – | COc1nc2c(c(=O)n(C)c(=O)n2C)n1CCCC(=O)NCc1ccccc1 [GR-7] | –
12 | 0.33 L/kg | 68.1 mL/min/kg | 0.66 L/kg | 6.75 min | 0.14 | 0.14 | – | – | COC(=O)Cn1c(=O)[nH]c2c1c(=O)n(C)c(=O)n2C [GR-8] | –
